Measured values published in US20250230193A1, “CYCLIC COMPOUND HAVING SELECTIVE KRAS INHIBITORY EFFECT ON HRAS AND NRAS” (CHUGAI SEIYAKU KABUSHIKI KAISHA, priority 2022, published 2025).

Assays:
[1] = target: GDP-bound NRAS wild-type protein (Homo sapiens, UniProt P01111); assay: Binding to NRAS by surface plasmon resonance (SPR), Single Cycle Kinetics; settings: KD ratio NRAS/KRAS, SPR
[2] = target: GDP-bound HRAS wild-type protein (Homo sapiens, UniProt P01112); assay: Binding to HRAS by surface plasmon resonance (SPR), Single Cycle Kinetics; settings: KD ratio HRAS/KRAS, SPR
Sequence of GDP-bound HRAS wild-type protein (P01112 whole entry): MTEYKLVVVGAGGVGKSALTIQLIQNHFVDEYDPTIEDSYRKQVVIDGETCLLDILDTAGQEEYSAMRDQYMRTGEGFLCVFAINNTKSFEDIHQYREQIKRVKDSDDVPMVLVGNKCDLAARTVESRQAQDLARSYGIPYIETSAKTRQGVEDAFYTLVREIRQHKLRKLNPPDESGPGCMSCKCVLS

Sequence of GDP-bound NRAS wild-type protein (P01111 whole entry): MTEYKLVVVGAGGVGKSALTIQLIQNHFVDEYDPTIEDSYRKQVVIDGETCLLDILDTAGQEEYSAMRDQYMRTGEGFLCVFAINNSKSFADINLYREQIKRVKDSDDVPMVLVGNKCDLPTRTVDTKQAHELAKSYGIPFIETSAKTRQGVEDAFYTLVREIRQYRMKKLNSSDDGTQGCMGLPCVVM

Row | Structure (SMILES) | NRAS/KRAS (ratio of KD value with respect to GDP-bound NRAS wild-type protein to KD value with respect to KRAS) [1] | HRAS/KRAS (ratio of KD value with respect to GDP-bound HRAS wild-type protein to KD value with respect to KRAS) [2]
1 | CCO[C@@H]1C[C@H]2C(=O)NC3(CCC3)C(=O)N(C)[C@@H](C3CCCC3)C(=O)N(C)[C@H](C(=O)N(C)C)CC(=O)N(C)[C@@H](CC3CC3)C(=O)N[C@@H]([C@@H](C)CC)C(=O)N(C)CC(=O)N(C)[C@H]3CCCCCN(C3=O)[C@@H](Cc3ccc(C(F)(F)F)cc3)C(=O)N(C)CC(=O)N[C@@H](CCc3cc(F)c(C(F)(F)F)c(F)c3)C(=O)N2C1 [PP0667] | B (a compound having 3 or more and less than 10 is denoted as B) | B (a compound having 3 or more and less than 10 is denoted as B)
2 | CCO[C@@H]1C[C@H]2C(=O)NC3(CCC3)C(=O)N(C)[C@@H](C3CCCC3)C(=O)N(C)[C@H](C(=O)N(C)C)CC(=O)N(C)[C@@H](CC3CCC3)C(=O)N[C@@H]([C@@H](C)CC)C(=O)N(C)CC(=O)N(C)[C@H]3CCCCCN(C3=O)[C@@H](Cc3ccc(C(F)(F)F)cc3)C(=O)N(C)CC(=O)N[C@@H](CCc3cc(F)c(C(F)(F)F)c(F)c3)C(=O)N2C1 [PP0668] | B (a compound having 3 or more and less than 10 is denoted as B) | B (a compound having 3 or more and less than 10 is denoted as B)
3 | CCO[C@@H]1C[C@H]2C(=O)NC3(CCC3)C(=O)N(C)[C@@H](C3CCCC3)C(=O)N(C)[C@H](C(=O)N(C)C)CC(=O)N(C)[C@@H](CC(C)(C)C)C(=O)N[C@@H]([C@@H](C)CC)C(=O)N(C)CC(=O)N(C)[C@H]3CCCCCN(C3=O)[C@@H](Cc3ccc(C(F)(F)F)cc3)C(=O)N(C)CC(=O)N[C@@H](CCc3cc(F)c(C(F)(F)F)c(F)c3)C(=O)N2C1 [PP0669] | B (a compound having 3 or more and less than 10 is denoted as B) | B (a compound having 3 or more and less than 10 is denoted as B)
4 | CCO[C@@H]1C[C@H]2C(=O)NC3(CCC3)C(=O)N(C)[C@@H](C3CCCC3)C(=O)N(C)[C@H](C(=O)N(C)C)CC(=O)N(C)[C@@H](CC3CCCC3)C(=O)N[C@@H]([C@@H](C)CC)C(=O)N(C)CC(=O)N(C)[C@H]3CCCCCN(C3=O)[C@@H](Cc3ccc(C(F)(F)F)cc3)C(=O)N(C)CC(=O)N[C@@H](CCc3cc(F)c(C(F)(F)F)c(F)c3)C(=O)N2C1 [PP0670] | B (a compound having 3 or more and less than 10 is denoted as B) | B (a compound having 3 or more and less than 10 is denoted as B)
5 | CCO[C@@H]1C[C@H]2C(=O)NC3(CCC3)C(=O)N(C)[C@@H](C3CCCC3)C(=O)N(C)[C@H](C(=O)N(C)C)CC(=O)N(C)[C@@H](CC3CCCCC3)C(=O)N[C@@H]([C@@H](C)CC)C(=O)N(C)CC(=O)N(C)[C@H]3CCCCCN(C3=O)[C@@H](Cc3ccc(C(F)(F)F)cc3)C(=O)N(C)CC(=O)N[C@@H](CCc3cc(F)c(C(F)(F)F)c(F)c3)C(=O)N2C1 [PP0671] | B (a compound having 3 or more and less than 10 is denoted as B) | B (a compound having 3 or more and less than 10 is denoted as B)
6 | CCO[C@@H]1C[C@H]2C(=O)NC3(CCC3)C(=O)N(C)[C@@H](C3CCCC3)C(=O)N(C)[C@H](C(=O)N(C)C)CC(=O)N(C)[C@@H](Cc3ccccc3)C(=O)N[C@@H]([C@@H](C)CC)C(=O)N(C)CC(=O)N(C)[C@H]3CCCCCN(C3=O)[C@@H](Cc3ccc(C(F)(F)F)cc3)C(=O)N(C)CC(=O)N[C@@H](CCc3cc(F)c(C(F)(F)F)c(F)c3)C(=O)N2C1 [PP0672] | B (a compound having 3 or more and less than 10 is denoted as B) | B (a compound having 3 or more and less than 10 is denoted as B)
7 | CCO[C@@H]1C[C@H]2C(=O)NC3(CCC3)C(=O)N(C)[C@@H](C3CCCC3)C(=O)N(C)[C@H](C(=O)N(C)C)CC(=O)N(C)[C@@H](Cc3cccnc3)C(=O)N[C@@H]([C@@H](C)CC)C(=O)N(C)CC(=O)N(C)[C@H]3CCCCCN(C3=O)[C@@H](Cc3ccc(C(F)(F)F)cc3)C(=O)N(C)CC(=O)N[C@@H](CCc3cc(F)c(C(F)(F)F)c(F)c3)C(=O)N2C1 [PP0673] | B (a compound having 3 or more and less than 10 is denoted as B) | B (a compound having 3 or more and less than 10 is denoted as B)
8 | CCO[C@@H]1C[C@H]2C(=O)NC3(CCC3)C(=O)N(C)[C@@H](C3CCCC3)C(=O)N(C)[C@H](C(=O)N(C)C)CC(=O)N(C)[C@@H](COC)C(=O)N[C@@H]([C@@H](C)CC)C(=O)N(C)CC(=O)N(C)[C@H]3CCCCCN(C3=O)[C@@H](Cc3ccc(C(F)(F)F)cc3)C(=O)N(C)CC(=O)N[C@@H](CCc3cc(F)c(C(F)(F)F)c(F)c3)C(=O)N2C1 [PP0674] | B (a compound having 3 or more and less than 10 is denoted as B) | B (a compound having 3 or more and less than 10 is denoted as B)
9 | CCO[C@@H]1C[C@H]2C(=O)NC3(CCC3)C(=O)N(C)[C@@H](C3CCCC3)C(=O)N(C)[C@H](C(=O)N(C)C)CC(=O)N(C)[C@@H](CCOC)C(=O)N[C@@H]([C@@H](C)CC)C(=O)N(C)CC(=O)N(C)[C@H]3CCCCCN(C3=O)[C@@H](Cc3ccc(C(F)(F)F)cc3)C(=O)N(C)CC(=O)N[C@@H](CCc3cc(F)c(C(F)(F)F)c(F)c3)C(=O)N2C1 [PP0675] | B (a compound having 3 or more and less than 10 is denoted as B) | B (a compound having 3 or more and less than 10 is denoted as B)
10 | CCO[C@@H]1C[C@H]2C(=O)NC3(CCC3)C(=O)N(C)[C@@H](C3CCCC3)C(=O)N(C)[C@H](C(=O)N3CCOCC3)CC(=O)N(C)[C@@H](CC)C(=O)N[C@@H]([C@@H](C)CC)C(=O)N(C)CC(=O)N(C)[C@H]3CCCCCN(C3=O)[C@@H](Cc3ccc(C(F)(F)F)cc3)C(=O)N(C)CC(=O)N[C@@H](CCc3cc(F)c(C(F)(F)F)c(F)c3)C(=O)N2C1 [PP0678] | B (a compound having 3 or more and less than 10 is denoted as B) | B (a compound having 3 or more and less than 10 is denoted as B)
11 | CCC[C@H]1C(=O)N[C@@H]([C@@H](C)CC)C(=O)N(C)CC(=O)N(C)[C@H]2CCCCCN(C2=O)[C@@H](Cc2ccc(C(F)(F)F)cc2)C(=O)N(C)CC(=O)N[C@@H](CCc2cc(F)c(C(F)(F)F)c(F)c2)C(=O)N2C[C@H](OCC)C[C@H]2C(=O)NC2(CCC2)C(=O)N(C)[C@@H](C2CCCC2)C(=O)N(C)[C@H](C(=O)N2CCOCC2)CC(=O)N1C [PP0679] | B (a compound having 3 or more and less than 10 is denoted as B) | B (a compound having 3 or more and less than 10 is denoted as B)
12 | C#CC[C@H]1C(=O)N[C@@H]([C@@H](C)CC)C(=O)N(C)CC(=O)N(C)[C@H]2CCCCCN(C2=O)[C@@H](Cc2ccc(C(F)(F)F)cc2)C(=O)N(C)CC(=O)N[C@@H](CCc2cc(F)c(C(F)(F)F)c(F)c2)C(=O)N2C[C@H](OCC)C[C@H]2C(=O)NC2(CCC2)C(=O)N(C)[C@@H](C2CCCC2)C(=O)N(C)[C@H](C(=O)N2CCOCC2)CC(=O)N1C [PP0681] | B (a compound having 3 or more and less than 10 is denoted as B) | B (a compound having 3 or more and less than 10 is denoted as B)
13 | CCO[C@@H]1C[C@H]2C(=O)NC3(CCC3)C(=O)N(C)[C@@H](C3CCCC3)C(=O)N(C)[C@H](C(=O)N3CCOCC3)CC(=O)N(C)[C@@H](CC3CC3)C(=O)N[C@@H]([C@@H](C)CC)C(=O)N(C)CC(=O)N(C)[C@H]3CCCCCN(C3=O)[C@@H](Cc3ccc(C(F)(F)F)cc3)C(=O)N(C)CC(=O)N[C@@H](CCc3cc(F)c(C(F)(F)F)c(F)c3)C(=O)N2C1 [PP0682] | B (a compound having 3 or more and less than 10 is denoted as B) | B (a compound having 3 or more and less than 10 is denoted as B)
14 | CCO[C@@H]1C[C@H]2C(=O)NC3(CCC3)C(=O)N(C)[C@@H](C3CCCC3)C(=O)N(C)[C@H](C(=O)N3CCOCC3)CC(=O)N(C)[C@@H](CC3CCC3)C(=O)N[C@@H]([C@@H](C)CC)C(=O)N(C)CC(=O)N(C)[C@H]3CCCCCN(C3=O)[C@@H](Cc3ccc(C(F)(F)F)cc3)C(=O)N(C)CC(=O)N[C@@H](CCc3cc(F)c(C(F)(F)F)c(F)c3)C(=O)N2C1 [PP0683] | B (a compound having 3 or more and less than 10 is denoted as B) | B (a compound having 3 or more and less than 10 is denoted as B)
15 | CCO[C@@H]1C[C@H]2C(=O)NC3(CCC3)C(=O)N(C)[C@@H](C3CCCC3)C(=O)N(C)[C@H](C(=O)N3CCOCC3)CC(=O)N(C)[C@@H](CC(C)(C)C)C(=O)N[C@@H]([C@@H](C)CC)C(=O)N(C)CC(=O)N(C)[C@H]3CCCCCN(C3=O)[C@@H](Cc3ccc(C(F)(F)F)cc3)C(=O)N(C)CC(=O)N[C@@H](CCc3cc(F)c(C(F)(F)F)c(F)c3)C(=O)N2C1 [PP0684] | B (a compound having 3 or more and less than 10 is denoted as B) | B (a compound having 3 or more and less than 10 is denoted as B)
